System: Mature dendrocytes mixed with T-Lymphocytes
Assay: Antigen presentation and T cell stimulation: production of human γ-IFN measured by ELISA
Type: cell-based
Settings: human γ-IFN production after 2 hours incubation; HLA-A02 CMV-exposed donor PBMC-derived dendrocytes + T-lymphocytes; free peptide at 10^−9 M or 15 micron PLGA microspheres with approximately 2% NLVPMVATV
Description: Preparation of Dendritic Cells from peripheral blood mononuclear cells (PBMC). Frozen PBMC cells were obtained from Cellular Technology Limited, from volunteer donors known to have been exposed to CMV, and to be HLA-A02. The volunteer's antigen presenting cells were known to be capable of presenting HCMV pp 65 (NLVPMVATV) CMV epitope to T lymphocytes. Human PBMC (Peripheral Blood Mononuclear Cells) isolated from leukopacks and frozen in serum-free CTL-Cryo™ medium. These leukopacks were ethically collected from healthy donors tested for: HBsAg, HBcAb, HCV, HTLV I/II, and STS by serology; as well as HIV I, HCV, and WNV by NAT.
Cells were thawed and plated at a concentration of 1×10^5 monocytes/well of a 24-well plate in medium supplemented with GM-CSF at a final concentration of 50 ng/ml and IL-4 at a final concentration of 100 ng/ml. Cells were maintained in culture at 37° C./5% CO2 for 6 days; and used with 8 days after that point. Optical microscopy confirmed maturation of monocytes to dendrocytes capable of phagocytosis of 15 micron PLGA microspheres.
Presentation of antigen and stimulation of T cells was assessed by production of human γ-IFN, measured by ELISA. […] Production of γ-IFN was measured after 2 hours.

## NLVPMVATV [free peptide]
  ELISA Optical Density: 0.612
